Data on 21 compounds can be found in patent US11046699B2, “Pyrazolo-pyrimidin-amino-cycloalkyl compounds and their therapeutic uses” (RAPT THERAPEUTICS, INC., priority 2018, dated 2021).

Where two headings read alike, the source gives them in different places. Bounds are passed on as bounds.

In this test the target is GCN2 (Homo sapiens, UniProt Q9P2K8). Nature of the test: GCN2 enzymatic endpoint assay: phosphorylation of GFP-eIF2α measured by TR-FRET (Lanthascreen). Format: biochemical. In outline: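 Read-out is the TR-FRET ratio of acceptor signal at 520 nm to terbium donor at 495 nm, rising with antibody binding to phosphorylated GFP-eIF2α. Endpoint format: 2 μM ATP, 80 nM substrate, 90 minutes at room temperature, EDTA stop.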
Sequence of GCN2 (Q9P2K8 whole entry): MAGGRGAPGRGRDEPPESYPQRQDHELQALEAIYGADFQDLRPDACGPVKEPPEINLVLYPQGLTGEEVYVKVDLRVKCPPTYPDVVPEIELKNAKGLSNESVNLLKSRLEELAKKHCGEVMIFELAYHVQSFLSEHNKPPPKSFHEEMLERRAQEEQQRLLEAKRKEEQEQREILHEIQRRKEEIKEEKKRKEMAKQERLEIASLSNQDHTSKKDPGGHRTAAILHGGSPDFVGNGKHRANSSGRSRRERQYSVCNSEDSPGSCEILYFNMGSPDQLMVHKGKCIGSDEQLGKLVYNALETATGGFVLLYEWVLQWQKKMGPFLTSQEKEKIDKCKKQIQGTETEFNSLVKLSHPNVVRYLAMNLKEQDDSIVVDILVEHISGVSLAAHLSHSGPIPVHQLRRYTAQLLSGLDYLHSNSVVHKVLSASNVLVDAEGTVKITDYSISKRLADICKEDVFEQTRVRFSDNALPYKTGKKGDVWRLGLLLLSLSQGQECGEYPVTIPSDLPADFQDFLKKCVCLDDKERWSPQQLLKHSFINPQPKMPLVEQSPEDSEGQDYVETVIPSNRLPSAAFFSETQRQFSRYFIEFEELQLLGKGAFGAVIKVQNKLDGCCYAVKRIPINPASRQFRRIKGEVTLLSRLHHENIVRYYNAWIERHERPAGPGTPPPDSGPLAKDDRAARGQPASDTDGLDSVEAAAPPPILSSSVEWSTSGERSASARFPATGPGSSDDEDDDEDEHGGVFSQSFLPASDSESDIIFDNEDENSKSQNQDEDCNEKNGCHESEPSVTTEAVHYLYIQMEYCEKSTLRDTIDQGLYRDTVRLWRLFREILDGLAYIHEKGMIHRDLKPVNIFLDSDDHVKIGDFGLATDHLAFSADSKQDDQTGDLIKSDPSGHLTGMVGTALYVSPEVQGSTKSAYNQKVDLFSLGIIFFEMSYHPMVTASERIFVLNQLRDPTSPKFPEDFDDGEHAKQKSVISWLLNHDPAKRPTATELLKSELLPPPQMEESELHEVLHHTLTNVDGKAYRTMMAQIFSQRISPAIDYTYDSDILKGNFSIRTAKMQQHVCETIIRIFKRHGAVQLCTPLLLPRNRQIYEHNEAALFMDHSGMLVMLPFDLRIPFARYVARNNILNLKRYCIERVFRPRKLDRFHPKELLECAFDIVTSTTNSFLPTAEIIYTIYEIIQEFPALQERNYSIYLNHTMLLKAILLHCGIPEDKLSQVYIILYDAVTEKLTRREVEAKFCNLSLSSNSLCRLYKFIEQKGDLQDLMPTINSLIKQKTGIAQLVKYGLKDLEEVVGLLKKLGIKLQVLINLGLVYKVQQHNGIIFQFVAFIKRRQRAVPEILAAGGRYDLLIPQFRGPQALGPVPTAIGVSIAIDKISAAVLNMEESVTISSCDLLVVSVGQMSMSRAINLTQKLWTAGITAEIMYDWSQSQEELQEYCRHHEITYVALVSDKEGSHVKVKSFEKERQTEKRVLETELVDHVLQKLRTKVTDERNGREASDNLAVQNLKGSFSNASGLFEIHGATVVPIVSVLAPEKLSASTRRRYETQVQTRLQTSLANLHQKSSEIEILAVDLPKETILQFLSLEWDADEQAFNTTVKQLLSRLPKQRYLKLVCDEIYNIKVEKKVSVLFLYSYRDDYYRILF
Background: TR-FRET usually uses a lanthanide donor and a delayed reading to cut background.

[1] abbreviates: tested as described in Example 77, compound and/or hydrochloride, dihydrochloride or trifluoroacetic acid salt, read-out: IC 50 Activity.
The mark [2] stands for this setting: GCN2 biochemical IC50, 4 nM GCN2, 2 μM ATP, 80 nM GFP-eIF2α, 90 min RT, read-out: GCN2 activity.

On to `O=C([C@@H]1CC[C@@H](Nc2ncc3c(Br)nn(-c4ccc5ncccc5c4)c3n2)C1)N1CCOCC1` [((1R,3R)-3-((3-bromo-1-(quinolin-6-yl)-1H-pyrazolo[3,4-d]pyrimidin-6-yl)amino)cyclo-pentyl)(morpholino)methanone], for which the IC50 under setting [1] was 25 to 200 nM.

Regarding `O=C([C@@H]1CC[C@@H](Nc2ncc3c(Br)nn(-c4ccc5ncccc5c4)c3n2)C1)N1CCNCC1` [((1R,3R)-3-((3-bromo-1-(quinolin-6-yl)-1H-pyrazolo[3,4-d]pyrimidin-6-yl)amino)cyclo-pentyl)(piperazin-1-yl)methanone], under setting [1], the IC50 is 25 to 200 nM.

Turning to `O=C([C@@H]1CC[C@@H](Nc2ncc3c(Br)nn(-c4ccc5ncccc5c4)c3n2)C1)N1CCN(CCO)CC1` [((1R,3R)-3-((3-bromo-1-(quinolin-6-yl)-1H-pyrazolo[3,4-d]pyrimidin-6-yl)amino)cyclopentyl)(4-(2-hydroxyethyl)piperazin-1-yl)methanone], the IC50 under setting [1] was in the range of 25 to 200 nM.

As to `O=C([C@@H]1CC[C@@H](Nc2ncc3c(Br)nn(-c4ccc5ncccc5c4)c3n2)C1)N1CCC2(CCCCO2)C1` (stereo partly drawn) [((1R,3R)-3-((3-bromo-1-(quinolin-6-yl)-1H-pyrazolo[3,4-d]pyrimidin-6-yl)amino)cyclopentyl)(6-oxa-2-azaspiro[4.5]decan-2-yl)methanone], the IC50 under setting [1] was in the range of 200 to 500 nM.

Turning to `C[C@@H]1CN(C(=O)[C@@H]2CC[C@@H](Nc3ncc4c(Br)nn(-c5ccc6ncccc6c5)c4n3)C2)C[C@H](C)O1` [((1R,3R)-3-((3-bromo-1-(quinolin-6-yl)-1H-pyrazolo[3,4-d]pyrimidin-6-yl)amino)cyclopentyl)((2S,6R)-2,6-dimethylmorpholino) methanone], under setting [1], the IC50 lay within 200 to 500 nM.

Consider `COCCO[C@@H]1CCN(C(=O)[C@@H]2CC[C@@H](Nc3ncc4c(Br)nn(-c5ccc6ncccc6c5)c4n3)C2)C1` [((1R,3R)-3-((3-bromo-1-(quinolin-6-yl)-1H-pyrazolo[3,4-d]pyrimidin-6-yl)amino)cyclopentyl)((R)-3-(2-methoxyethoxy)pyrrolidin-1-yl)methanone], for which the IC50 under setting [1] was 25 to 200 nM.

In the case of `C[C@H]1COCCN1C(=O)[C@@H]1CC[C@@H](Nc2ncc3c(Br)nn(-c4ccc5ncccc5c4)c3n2)C1` [((1R,3R)-3-((3-bromo-1-(quinolin-6-yl)-1H-pyrazolo[3,4-d]pyrimidin-6-yl)amino)cyclopentyl)((S)-3-methylmorpholino) methanone], the IC50 under setting [1] lay within 25 to 200 nM.

For `O=C([C@@H]1CC[C@@H](Nc2ncc3c(Br)nn(-c4ccc5ncccc5c4)c3n2)C1)N1C[C@H]2C[C@@H]1CO2` [((1R,4R)-2-oxa-5-azabicyclo[2.2.1]heptan-5-yl) ((1R,3R)-3-((3-bromo-1-(quinolin-6-yl)-1H-pyrazolo[3,4-d]pyrimidin-6-yl)amino)cyclo-pentyl)methanone], under setting [1], the IC50 fell in the range of 25 to 200 nM.

Regarding `CN(C)C(=O)N1CC[C@@H](Nc2ncc3c(Br)nn(-c4ccc5ncccc5c4)c3n2)C1` [(R)-3-((3-bromo-1-(quinolin-6-yl)-1H-pyrazolo [3,4-d]pyrimidin-6-yl)amino)-N,N-dimethyl-pyrrolidine-1-carboxamide], under setting [1], the IC50 fell in the range of 500 to 1000 nM.

Take `CS(=O)(=O)N1CC[C@@H](Nc2ncc3c(Br)nn(-c4ccc5ncccc5c4)c3n2)C1` [(R)-3-bromo-N-(1-(methylsulfonyl)pyrrolidin-3-yl)-1-(quinolin-6-yl)-1H-pyrazolo[3,4-d] pyrimidin-6-amine]: the IC50 under setting [1] was in the range of 200 to 500 nM.

On to `C[C@H]1CN(C)C(=O)CN1C(=O)[C@@H]1CC[C@@H](Nc2ncc3c(Br)nn(-c4cc(F)c5ncccc5c4)c3n2)C1` [(S)-4-((1R,3R)-3-((3-bromo-1-(8-fluoroquinolin-6-yl)-1H-pyrazolo[3,4-d]pyrimidin-6-yl)amino)cyclopentane-1-carbonyl)-1,5-dimethyl-piperazin-2-one], for which, under setting [1], the IC50 was in the range of 25 to 200 nM.

For the compound `COCCNC(=O)[C@@H]1CC[C@@H](Nc2ncc3c(Br)nn(-c4ccc5ncccc5c4)c3n2)C1` [Example 1, (1R,3R)-3-((3-bromo-1-(quinolin-6-yl)-1H-pyrazolo[3,4-d]pyrimidin-6-yl)amino)-N-(2-methoxyethyl)cyclopentane-1-carboxamide], the IC50 under setting [2] was less than 25 nM.

As for `COCCNC(=O)[C@H]1C[C@H](Nc2ncc3c(Br)nn(-c4ccc5ncccc5c4)c3n2)C1` [Example 2, (1r,3r)-3-((3-bromo-1-(quinolin-6-yl)-1H-pyrazolo[3,4-d]pyrimidin-6-yl)amino)-N-(2-methoxyethyl)cyclobutane-1-carboxamide], under setting [2], the IC50 lay in the range of 25 to 200 nM.

As to `COCCC(=O)N[C@H]1C[C@H](Nc2ncc3c(Br)nn(-c4ccc5ncccc5c4)c3n2)C1` [Example 3, N-((1r,3r)-3-((3-bromo-1-(quinolin-6-yl)-1H-pyrazolo[3,4-d]pyrimidin-6-yl)amino)cyclobutyl)-3-methoxypropanamide], under setting [2], the IC50 fell in the range of 500 to 1000 nM.

With `COCCO[C@H]1C[C@H](Nc2ncc3c(Br)nn(-c4ccc5ncccc5c4)c3n2)C1` [Example 4, 3-bromo-N-((1r,3r)-3-(2-methoxyethoxy)cyclobutyl)-1-(quinolin-6-yl)-1H-pyrazolo[3,4-d]pyrimidin-6-amine], under setting [2], the IC50 lay in the range of 25 to 200 nM.

With `COCc1noc([C@@H]2CC[C@@H](Nc3ncc4c(Br)nn(-c5ccc6ncccc6c5)c4n3)C2)n1` [Example 5, 3-bromo-N-((1R,3R)-3-(3-(methoxymethyl)-1,2,4-oxadiazol-5-yl)cyclopentyl)-1-(quinolin-6-yl)-1H-pyrazolo[3,4-d]pyrimidin-6-amine], under setting [2], the IC50 was 500 to 1000 nM.

Consider `COCCNC(=O)[C@@H]1CC[C@@H](Nc2ncc3c(Br)nn(-c4ccc5cnccc5c4)c3n2)C1` [Example 6, (1R,3R)-3-((3-bromo-1-(isoquinolin-6-yl)-1H-pyrazolo[3,4-d]pyrimidin-6-yl)amino)-N-(2-methoxyethyl)cyclopentane-1-carboxamide], for which the IC50 under setting [2] was 25 to 200 nM.

On to `CNC(=O)[C@@H]1CC[C@@H](Nc2ncc3c(Br)nn(-c4cc(F)c5ncccc5c4)c3n2)C1` [Example 8, (1R,3R)-3-((3-bromo-1-(8-fluoroquinolin-6-yl)-1H-pyrazolo[3,4-d]pyrimidin-6-yl)amino)-N-methylcyclopentane-1-carboxamide], for which, under setting [2], the IC50 was 25 to 200 nM.

In the case of `CN1CCN(C(=O)[C@@H]2CC[C@@H](Nc3ncc4c(Br)nn(-c5ccc(N6CCOCC6)c(C#N)c5)c4n3)C2)CC1=O` [Example 9, 5-(3-bromo-6-(((1R,3R)-3-(4-methyl-3-oxopiperazine-1-carbonyl)cyclopentyl)amino)-1H-pyrazolo[3,4-d]pyrimidin-1-yl)-2-morpholinobenzonitrile], under setting [2], the IC50 fell in the range of 200 to 500 nM.

On to `CNC(=O)[C@@H]1CC[C@@H](Nc2ncc3c(Br)nn(-c4ccc(-c5ncco5)cc4)c3n2)C1` [Example 10, (1R,3R)-3-((3-bromo-1-(4-(oxazol-2-yl)phenyl)-1H-pyrazolo[3,4-d]pyrimidin-6-yl)amino)-N-methylcyclopentane-1-carboxamide], for which the IC50 under setting [2] fell in the range of 25 to 200 nM.

`NC(=O)[C@@H]1CC[C@@H](Nc2ncc3c(Br)nn(-c4cc(F)c5ncccc5c4)c3n2)C1` [Example 12, (1R,3R)-3-((3-bromo-1-(8-fluoroquinolin-6-yl)-1H-pyrazolo[3,4-d]pyrimidin-6-yl)amino)cyclopentane-1-carboxamide]: the IC50 under setting [2] lay within 25 to 200 nM.
